This test relates to Homo sapiens. Nature of the test: In vivo inhibition of IDO1 in malignant glioma patient assessed as reduction in intratumoral kynurenine levels relative to control. The format is functional.

The text below walks through data of ChEMBL document CHEMBL4261520, “Advances in indoleamine 2,3-dioxygenase 1 medicinal chemistry” (Medchemcomm, 2017).

The structures appear in SMILES notation.

With `O=C1CC(c2c[nH]c3ccc(F)cc23)C(=O)N1` (stereo unspecified) [PF-06840003], the “inhibition (INH)” value is recorded as >80%.
